{"source": "paper PMC10135567", "about": "“New Indole-3-Propionic Acid and 5-Methoxy-Indole Carboxylic Acid Derived Hydrazone Hybrids as Multifunctional Neuroprotectors” (Antioxidants, 2023)", "origin": "cited, not measured here", "tested_on": "SH-SY5Y cells and isolated rat-brain synaptosomes", "design": "method as in PMID 35624746", "settings": "SH-SY5Y cells and rat-brain synaptosomes under toxic agents of oxidative stress; cited from earlier work", "data": [{"smiles": "O=C(CCn1c(=S)n(CCC(=O)N/N=C/c2cccc(O)c2O)c2ccccc21)N/N=C/c1cccc(O)c1O", "note": "[VIII]", "values": [{"measurement": "cellular and synaptosomal viability restored", "value": "up to 80%"}]}]}
